The record followed here is ChEMBL document CHEMBL1201862, “PubChem BioAssay data set” (2004).

Each structure is given as a SMILES string.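 Where inhibition never reached the appropriate level, the endpoint shown equals the highest concentration tested. Otherwise, values were interpolated linearly from a five-concentration, 48-hour dose response in 96-well plates. Here, GI50 denotes the concentration required for 50% inhibition of growth.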 Active and inactive are the calls of the source. No stated cut-off is given here; in the data, active = GI50 up to about 1.1 µM and inactive = higher.

Some test systems named below: HT-29; CAKI-1; A549; SK-MEL-2; MOLT-4; NCI-H522; LXFL 529; U-251; KM12; RPMI-8226; SK-MEL-28; ACHN; RXF 393; UACC-257; HOP-62; DMS-114; K562; MDA-MB-231; MDA-N; MCF7.
Assay in all cases: inhibition of tumour cell growth, NCI panel, 48 h

As to `C[C@]12Cc3cn[nH]c3C(=O)C1CC[C@@H]1C2CC[C@@]2(C)C1CC[C@@H]2O` (some centres not stated), the GI50 was > 100 µM (inactive) with HT-29; > 100 µM (inactive) with CAKI-1; > 100 µM (inactive) with A549; 1.23 µM (inactive) in the assay with SK-MEL-2; > 100 µM (inactive) in the assay with MOLT-4; > 100 µM (inactive) with NCI-H522. In addition, the GI50 with LXFL 529, with U-251, in the assay on KM12, in the assay on RPMI-8226, with SK-MEL-28 and in the assay with ACHN was > 100 µM (inactive) each time. The GI50 in the assay with RXF 393, with UACC-257, in the assay on HOP-62, in the assay on DMS-114 and in the assay on K562 was > 100 µM (inactive) each time.

For `COC1C(O)C(C)OC(OC2C(Oc3cccc4c(O)c5c(=O)oc6ccc(C)c7c(=O)oc(c34)c5c67)OC(C)C3O[C@H](c4ccccc4)OC32)C1O` (some centres not stated), the GI50 is 0.0877 µM (active) in the assay with HT-29; 0.207 µM (active) in the assay on CAKI-1; 0.0286 µM (active) with A549; 0.824 µM (active) in the assay with SK-MEL-2; 0.845 µM (active) in the assay on MDA-MB-231; 0.0678 µM (active) in the assay with LXFL 529. Moreover, the GI50 with U-251 is 0.196 µM (active); with RPMI-8226, 0.0796 µM (active); in the assay with SK-MEL-28, 0.319 µM (active); in the assay on ACHN it was 0.0378 µM (active); in the assay on MDA-N it was 0.372 µM (active); in the assay on RXF 393 it was 0.274 µM (active). Moreover, the results for the GI50 in the assay with MCF7, with HOP-62 and in the assay on DMS-114 were 0.084 µM (active), 0.0441 µM (active) and 0.288 µM (active), respectively.

On to `COC(=O)C(=Cc1cc(OC)ccc1OC)C(=O)OC`, for which the GI50 was 21.8 µM (inactive) with HT-29; 18.9 µM (inactive) in the assay with CAKI-1; 31 µM (inactive) in the assay with A549; 22.1 µM (inactive) with SK-MEL-2; 27.4 µM (inactive) in the assay with MOLT-4; 15.1 µM (inactive) with NCI-H522. Also, the GI50 in the assay on LXFL 529 was 16.6 µM (inactive); with U-251, 19.8 µM (inactive); in the assay with KM12 it was 20.6 µM (inactive); in the assay with RPMI-8226, 25.9 µM (inactive); in the assay on SK-MEL-28 it was 23.6 µM (inactive); with ACHN it was 17.3 µM (inactive). For the same compound, the GI50 in the assay on RXF 393 was 16 µM (inactive); with UACC-257, 14.1 µM (inactive); with HOP-62, 27.5 µM (inactive); in the assay with DMS-114 it was 20.8 µM (inactive); in the assay on K562, 18 µM (inactive).

As to `COC1C(N)C(OC2C(Oc3cccc4c(O)c5c(=O)oc6ccc(C)c7c(=O)oc(c34)c5c67)OC(C)C(O)C2(C)O)OC(C)C1O` (configuration not stated), the GI50 in the assay on HT-29 was < 0.0168 µM (active); in the assay on CAKI-1, 0.0159 µM (active); with A549, 0.0634 µM (active); with SK-MEL-2 it was 0.0108 µM (active); in the assay with MDA-MB-231, 0.109 µM (active); in the assay with MOLT-4 it was < 0.0243 µM (active). The GI50 in the assay on NCI-H522 was < 0.01 µM (active); in the assay on LXFL 529 it was < 0.0121 µM (active); in the assay with U-251, < 0.01 µM (active); in the assay on KM12, 0.0313 µM (active); in the assay with RPMI-8226, < 0.01 µM (active); in the assay with SK-MEL-28, 0.029 µM (active). In addition, the GI50 is 0.0399 µM (active) in the assay with ACHN; 0.0743 µM (active) in the assay on MDA-N; < 0.0184 µM (active) in the assay on RXF 393; 0.0658 µM (active) in the assay on UACC-257; < 0.01 µM (active) in the assay on MCF7; 0.0428 µM (active) with HOP-62. Besides, the GI50 was 0.0229 µM (active) in the assay with DMS-114 and < 0.0154 µM (active) in the assay on K562.

In the case of `COC(=O)C(C(=O)C(=O)Nc1ccc(Br)cc1)c1nc2ccc(Cl)cc2nc1O` (configuration not stated), the GI50 in the assay with HT-29 is > 48 µM (inactive); in the assay with CAKI-1, > 100 µM (inactive); in the assay with A549, > 100 µM (inactive); in the assay on SK-MEL-2 it was > 100 µM (inactive); in the assay on MOLT-4, 80.7 µM (inactive); with NCI-H522 it was > 100 µM (inactive). Moreover, the GI50 in the assay on LXFL 529 is > 100 µM (inactive); in the assay on U-251, > 100 µM (inactive); in the assay on KM12, > 66.5 µM (inactive); in the assay on RPMI-8226, > 100 µM (inactive); in the assay with SK-MEL-28 it was > 100 µM (inactive); in the assay with ACHN, > 91.8 µM (inactive). The GI50 was > 100 µM (inactive) in the assay on RXF 393; > 100 µM (inactive) in the assay with UACC-257; > 100 µM (inactive) in the assay on HOP-62; > 80 µM (inactive) in the assay on DMS-114; > 67.8 µM (inactive) in the assay with K562.

For the compound `OCCCCCCOc1ccc(-c2cc(-c3ccccn3)nc(-c3ccccn3)c2)cc1`, the GI50 in the assay on HT-29 is 0.228 µM (active); in the assay with CAKI-1, 0.256 µM (active); in the assay with A549, 0.23 µM (active); in the assay with SK-MEL-2, 0.233 µM (active); with MOLT-4 it was 0.0274 µM (active); with NCI-H522, 0.536 µM (active). Also, the GI50 with LXFL 529 was 0.242 µM (active); with U-251, 0.0877 µM (active); in the assay with KM12, 0.388 µM (active); with RPMI-8226, 0.134 µM (active); in the assay on SK-MEL-28, 0.248 µM (active); in the assay with ACHN, 0.108 µM (active). The GI50 with MDA-N was 0.526 µM (active); with RXF 393 it was 0.239 µM (active); in the assay with UACC-257, 0.397 µM (active); in the assay with MCF7, 0.0321 µM (active); in the assay on HOP-62, 0.172 µM (active); in the assay on DMS-114 it was 0.207 µM (active). Also, the GI50 with K562 was 0.0728 µM (active).

Consider `Cn1c(=O)nc2n(-c3ccc(Cl)cc3)c3cc(Cl)ccc3nc-2c1=O`, for which the GI50 in the assay with HT-29 is 2.62 µM (inactive); in the assay with CAKI-1 it was 10.9 µM (inactive); in the assay with A549 it was 12.9 µM (inactive); with SK-MEL-2 it was 2.55 µM (inactive); with MDA-MB-231 it was 3.17 µM (inactive); with MOLT-4, 3.61 µM (inactive). Further, the GI50 is 2.99 µM (inactive) with NCI-H522; 1.7 µM (inactive) in the assay with LXFL 529; 17.7 µM (inactive) with U-251; 5.52 µM (inactive) in the assay with KM12; 3.79 µM (inactive) with RPMI-8226; 3.2 µM (inactive) in the assay on SK-MEL-28. The GI50 in the assay with ACHN was 12.6 µM (inactive); in the assay on MDA-N it was 1.48 µM (inactive); in the assay on RXF 393, 4.45 µM (inactive); in the assay on UACC-257 it was 1.82 µM (inactive); in the assay on MCF7, 0.577 µM (active); in the assay with HOP-62, 18.1 µM (inactive). Moreover, the GI50 in the assay with DMS-114 was 1.78 µM (inactive); in the assay on K562, 2.37 µM (inactive).

Turning to `CCN(CC)CCNc1ccc2nnn3c4ccc(O)cc4c(=O)c1c23`, the GI50 is 3.33 µM (inactive) with HT-29; 0.69 µM (active) in the assay on CAKI-1; 0.161 µM (active) with A549; 11.3 µM (inactive) with SK-MEL-2; 0.0361 µM (active) with MDA-MB-231; 0.0407 µM (active) in the assay on MOLT-4. The GI50 with NCI-H522 is 6.82 µM (inactive); in the assay with LXFL 529, 6.58 µM (inactive); with U-251, 2.86 µM (inactive); with KM12, 1.01 µM (active); in the assay on RPMI-8226 it was 2 µM (inactive); with SK-MEL-28, 11.4 µM (inactive). In addition, the GI50 with ACHN was 0.745 µM (active); with MDA-N, 4.09 µM (inactive); in the assay with RXF 393, 0.603 µM (active); in the assay on UACC-257 it was 12.2 µM (inactive); with MCF7, 2.7 µM (inactive); with HOP-62, 1.76 µM (inactive). Besides, the GI50 in the assay with DMS-114 is 7.29 µM (inactive); with K562 it was 1.62 µM (inactive).

In the case of `O=C1CCC2(c3ccccc3)Nc3ccccc3N12` (configuration not stated), the GI50 in the assay with HT-29, with CAKI-1, in the assay with A549, in the assay on SK-MEL-2, in the assay with MOLT-4 and in the assay on NCI-H522 was > 100 µM (inactive) throughout. In addition, the GI50 in the assay on LXFL 529, with U-251, with KM12, in the assay with RPMI-8226, in the assay on SK-MEL-28 and in the assay with ACHN was > 100 µM (inactive) each time. The GI50 in the assay with RXF 393, in the assay on UACC-257, in the assay with HOP-62, in the assay on DMS-114 and in the assay with K562 was > 100 µM (inactive) each time.
